The values that follow are results of earlier work, collected in patent US20100222262A1, “SUBSTITUTED 1, 3-CYCLOPENTADIONE ATTENUATED ENDOTHELIAL INFLAMMATION AND ENDOTHELIAL-MONOCYTE INTERACTIONS” (METAPROTEOMICS, LLC, priority 2008, published 2010).

The subject of this series is 85 Kinases.

Read-outs that look alike come from different tables or passages of the source.

`N#CC(C#N)=Cc1ccc(O)c(O)c1` [AG18]: for the setting “85 kinases, Concn 10 uM”, the “G10 (Gini coefficient)” value is listed as 0.680 and the “hit rate (>50% Inhibition)” value is 1.
With `N#CC(C#N)=C(N)/C(C#N)=C/c1cc(O)c(O)c(O)c1` [AG183], where the note is “85 kinases, Concn 10 uM”, the “G10 (Gini coefficient)” value is listed as 0.460 and the “hit rate (>50% Inhibition)” value was 14.
`N#C/C(=C\c1ccc(O)c(O)c1)C(=O)c1ccc(O)c(O)c1` [AG538]: under “85 kinases, Concn 10 uM”, the “G10 (Gini coefficient)” value was 0.417 and the “hit rate (>50% Inhibition)” value is reported as 17.
On to `CC(C)(C)c1cc(C=C(C#N)C#N)cc(Br)c1O` [AG1024], for which, for the setting “85 kinases, Concn 10 uM”, the “G10 (Gini coefficient)” value is reported as 0.568 and the “hit rate (>50% Inhibition)” value is 11.
On to `COc1cc2ncc(-c3ccccc3)nc2cc1OC` [AG1296], for which, under “85 kinases, Concn 10 uM”, the “G10 (Gini coefficient)” value is 0.498 and the “hit rate (>50% Inhibition)” value is on record as 4.
For `COc1cc2ncnc(Nc3cccc(Cl)c3)c2cc1OC` [AG1478], for the setting “85 kinases, Concn 10 uM”, the “G10 (Gini coefficient)” value is reported as 0.500 and the “hit rate (>50% Inhibition)” value is 25.
Consider `O=C1Cc2c([nH]c3ccc([N+](=O)[O-])cc23)-c2ccccc2N1` [Alsterpaullone], for which, where the note is “85 kinases, Concn 1 uM”, the “G10 (Gini coefficient)” value is on record as 0.633 and the “hit rate (>50% Inhibition)” value was 22.
Turning to `COc1cc(/C=C/C(=O)CC(=O)/C=C/c2ccc(O)c(OC)c2)ccc1O` [Curcumin], for the setting “85 kinases, Concn 50 uM”, the “G10 (Gini coefficient)” value is listed as 0.417 and the “hit rate (>50% Inhibition)” value is recorded as 38.
`O=C(O[C@@H]1Cc2c(O)cc(O)cc2O[C@@H]1c1cc(O)c(O)c(O)c1)c1cc(O)c(O)c(O)c1` [EGCG]: under “85 kinases, Concn 10 uM”, the “G10 (Gini coefficient)” value is reported as 0.495 and the “hit rate (>50% Inhibition)” value was 21.
`O=c1c(-c2ccc(O)cc2)coc2cc(O)cc(O)c12` [Genistein]: for the setting “85 kinases, Concn 10 uM”, the “G10 (Gini coefficient)” value is reported as 0.582 and the “hit rate (>50% Inhibition)” value was 0.
Regarding `O=S(=O)(NCCNC/C=C/c1ccc(Br)cc1)c1cccc2cnccc12` [H89], where the note is “85 kinases, Concn 10 uM”, the “G10 (Gini coefficient)” value is reported as 0.442 and the “hit rate (>50% Inhibition)” value is reported as 34.
On to `O=S(=O)(c1cccc2cnccc12)N1CCCNCC1` [HA1077], for which, where the note is “85 kinases, Concn 10 uM”, the “G10 (Gini coefficient)” value is listed as 0.650 and the “hit rate (>50% Inhibition)” value was 19.
Consider `CO[C@H]1[C@@H](OC)C[C@H](C)[C@@H](OC)C2=CC(=O)C=C(NC(=O)/C(C)=C/C=C\[C@H](OC)[C@@H](OC(N)=O)/C(C)=C/[C@@H]1C)C2=O` [Herbimycin A], for which, under “85 kinases, Concn 10 uM”, the “G10 (Gini coefficient)” value is recorded as 0.534 and the “hit rate (>50% Inhibition)” value is reported as 0.
Consider `O=c1cc(O)cc(/C=C/c2ccc(O)c(O)c2)o1` [Hispidin], for which, where the note is “85 kinases, Concn 10 uM”, the “G10 (Gini coefficient)” value is reported as 0.790 and the “hit rate (>50% Inhibition)” value is reported as 2.
As for `O=C1c2ccccc2-c2n[nH]c3cccc1c23` [JNK inh II], under “85 kinases, Concn 10 uM”, the “G10 (Gini coefficient)” value is given as 0.445 and the “hit rate (>50% Inhibition)” value is reported as 35.
As for `O=C1NCc2c1c1c3ccccc3[nH]c1c1[nH]c3ccccc3c21` [K252c], under “85 kinases, Concn 10 uM”, the “G10 (Gini coefficient)” value was 0.236 and the “hit rate (>50% Inhibition)” value was 58.
Turning to `CCCCCCOC(=O)[C@]1(O)C[C@@H]2O[C@@]1(C)n1c3ccccc3c3c4c(c5c6ccccc6n2c5c31)C(=O)NC4` [KT5720], where the note is “85 kinases, Concn 1 uM”, the “G10 (Gini coefficient)” value is 0.423 and the “hit rate (>50% Inhibition)” value is listed as 33.
`O=C(O)c1cc(N(Cc2ccccc2O)Cc2cc(O)ccc2O)ccc1O` [Lavendustin A]: where the note is “85 kinases, Concn 1 uM”, the “G10 (Gini coefficient)” value was 0.726 and the “hit rate (>50% Inhibition)” value is on record as 0.
Consider `O=C(O)c1cc(N(Cc2ccccc2O)Cc2ccccc2O)ccc1O` [Lavendustin B], for which, where the note is “85 kinases, Concn 1 uM”, the “G10 (Gini coefficient)” value is 0.515 and the “hit rate (>50% Inhibition)” value is listed as 0.
In the case of `Cn1cnc2c(NCc3ccccc3)nc(NCCO)nc21` [Olomoucin], for the setting “85 kinases, Concn 50 uM”, the “G10 (Gini coefficient)” value was 0.556 and the “hit rate (>50% Inhibition)” value is 13.
In the case of `COc1cc2ncnc(Nc3cccc(Br)c3)c2cc1OC` [PD153035], under “85 kinases, Concn 0.001 uM”, the “G10 (Gini coefficient)” value is 0.616 and the “hit rate (>50% Inhibition)” value is 0.
Turning to `O=C(NOCC1CC1)c1ccc(F)c(F)c1Nc1ccc(I)cc1Cl` [PD184352], for the setting “85 kinases, Concn 10 uM”, the “G10 (Gini coefficient)” value is given as 0.802 and the “hit rate (>50% Inhibition)” value is listed as 1.
On to `CC(C)(C)n1nc(-c2ccc(Cl)cc2)c2c(N)ncnc21` [PP2], for which, under “85 kinases, Concn 1 uM”, the “G10 (Gini coefficient)” value is 0.722 and the “hit rate (>50% Inhibition)” value is listed as 14.
For `Nc1ncnc2c1cnn2-c1ccccc1` [PP3], under “85 kinases, Concn 1 uM”, the “G10 (Gini coefficient)” value is 0.634 and the “hit rate (>50% Inhibition)” value is listed as 0.
On to `Cn1cc(C2=C(c3cn(CCCSC(=N)N)c4ccccc34)C(=O)NC2=O)c2ccccc21` [Ro31-8220], for which, where the note is “85 kinases, Concn 1 uM”, the “G10 (Gini coefficient)” value was 0.432 and the “hit rate (>50% Inhibition)” value was 39.
In the case of `CC[C@H](CO)Nc1nc(NCc2ccccc2)c2ncn(C(C)C)c2n1` [Roscovitine], the “G10 (Gini coefficient)” value was 0.744 and the “hit rate (>50% Inhibition)” value is recorded as 10.
Turning to `CC(=O)c1c(O)c(C)c(O)c(Cc2c(O)c3c(c(C(=O)/C=C/c4ccccc4)c2O)OC(C)(C)C=C3)c1O` [Rottlerin], where the note is “85 kinases, Concn 10 uM”, the “G10 (Gini coefficient)” value is given as 0.595 and the “hit rate (>50% Inhibition)” value is 3.
For the molecule `Oc1ccc(-c2nc(-c3ccncc3)c(-c3ccc(F)cc3)[nH]2)cc1` [SB202190], where the note is “85 kinases, Concn 10 uM”, the “G10 (Gini coefficient)” value was 0.553 and the “hit rate (>50% Inhibition)” value is recorded as 29.
On to `C[S+]([O-])c1ccc(-c2nc(-c3ccncc3)c(-c3ccc(F)cc3)[nH]2)cc1` (stereo not drawn) [SB203580], for which the “G10 (Gini coefficient)” value is 0.621 and the “hit rate (>50% Inhibition)” value is given as 17.
In the case of `CCOc1cc(/C=C(\C#N)C(N)=O)cc(CSc2ccccc2)c1O` [ST638], where the note is “85 kinases, Concn 10 uM”, the “G10 (Gini coefficient)” value is listed as 0.568 and the “hit rate (>50% Inhibition)” value is recorded as 14.
On to `CN(C)S(=O)(=O)c1ccc2c(c1)/C(=C/c1cc3c([nH]1)CCCC3)C(=O)N2` [SU6656], for which, where the note is “85 kinases, Concn 1 uM”, the “G10 (Gini coefficient)” value is given as 0.607 and the “hit rate (>50% Inhibition)” value was 19.
As for `CN[C@@H]1C[C@H]2O[C@@](C)([C@@H]1OC)n1c3ccccc3c3c4c(c5c6ccccc6n2c5c31)C(=O)NC4` [Staurosporine], the “G10 (Gini coefficient)” value (85 kinases, Concn 1 uM) is recorded as 0.093.
Consider `C[C@@H](N)[C@H]1CC[C@H](C(=O)Nc2ccncc2)CC1` [Y27632], for which, for the setting “85 kinases, Concn 10 uM”, the “G10 (Gini coefficient)” value is on record as 0.628 and the “hit rate (>50% Inhibition)” value is 13.
Consider `Cc1ccc(NC(=O)c2cccc(N(C)C)c2)cc1NC(=O)c1ccc(O)cc1` [ZM336372], for which, under “85 kinases, Concn 10 uM”, the “G10 (Gini coefficient)” value is 0.635 and the “hit rate (>50% Inhibition)” value was 11.
As for Calphostin C, where the note is “85 kinases, Concn 10 uM”, the “G10 (Gini coefficient)” value is on record as 0.606 and the “hit rate (>50% Inhibition)” value is 2.
